Source: patent publication EP1637163A1, “Indicator of therapeutic compliance” (priority 2004, dated 2006)

What was measured:
[1] = set-up: species or system human; conditions: in vivo
Method: (§1) As a first step to test the feasibility of this approach, a self-experiment was conducted by the inventors. The aim was to obtain first data on the effect size, the pharmacokinetic data in various body fluids, and the variability between subjects. Single, large doses of the following substances were ingested by the subjects: ^13C6-glucose (1 g, two subjects) ^15N-L-leucine (1 g, two subjects) ^15N3-L-arginine (250 mg, one subject) ^15N4-L-histidine (250 mg, one subject) Baseline and follow-up samples were taken from the following body fluids: blood, saliva, and urine. These samples were dried, milled, burned, and analysed by mass spectrometry. […] Samples of exhaled breath were taken until 3 days after ingestion and analysed by IR-spectroscopy for ^13C/^12C-ratios.
(§2) Blood: Appr. 4 ml of venous blood were drawn and given into a thoroughly cleaned glass vial. The sample was frozen immediately at -18°C and stored at this temperature. Saliva: Saliva samples were obtained by letting the volunteers chew on "salivettes", i. e., cotton swabs, which were then centrifuged to extract saliva. The saliva samples were frozen at -18°C and stored at this temperature. […]
(§3) The isotopic composition was measured and compared to a standard. […] Samples of exhaled breath were taken until 3 days after ingestion and analysed by IR-spectroscopy for ^13C/^12C-ratios.

[2] = set-up: species or system human; conditions: in vivo; remark: listed apart in the source
Method: As a first step to test the feasibility of this approach, a self-experiment was conducted by the inventors. The aim was to obtain first data on the effect size, the pharmacokinetic data in various body fluids, and the variability between subjects. Single, large doses of the following substances were ingested by the subjects: ^13C6-glucose (1 g, two subjects) ^15N-L-leucine (1 g, two subjects) ^15N3-L-arginine (250 mg, one subject) ^15N4-L-histidine (250 mg, one subject) Baseline and follow-up samples were taken from the following body fluids: blood, saliva, and urine. These samples were dried, milled, burned, and analysed by mass spectrometry. The results are given as δ-values, which are defined as follows: [formula] where rsample is the ratio of ^15N [^13C] over ^14N [[…]] in the sample, and rstandard is the ratio of ^15N [^13C] over ^14N [[…]] in a standard. Samples of exhaled breath were taken until 3 days after ingestion and analysed by IR-spectroscopy for ^13C/^12C-ratios. Glucose and leucine were ingested on day zero, while arginine and histidine were ingested on day 116.
Gas of the sample tubes was separated by freezing at -196°C (N2) and - 78°C(CO2), and let into a mass spectrometer (Finnigan Delta +XL) according to manufacturer's specifications. The isotopic composition was measured and compared to a standard. Results are given as δ-values, which are defined as follows: [formula] where rsample is the ratio of ^15N [^13C] over ^14N [[…]] in the sample, and rstandard is the ratio of ^15N [^13C] over ^14N [^13C] in a standard. Samples of exhaled breath were taken until 3 days after ingestion and analysed by IR-spectroscopy for ^13C/^12C-ratios. Glucose and leucine were ingested on day zero, while arginine and histidine were ingested on day 116.

[3] = Blood test after ingestion of labelled substance (isotope content by mass spectrometry, δ-values); type: in vivo, human
Method: as §1
Blood: Appr. 4 ml of venous blood were drawn and given into a thoroughly cleaned glass vial. The sample was frozen immediately at -18°C and stored at this temperature. Saliva: Saliva samples were obtained by letting the volunteers chew on "salivettes", i. e., cotton swabs, which were then centrifuged to extract saliva. The saliva samples were frozen at -18°C and stored at this temperature. Urine: Urine was given into glass vials and frozen and stored at -18°C. All samples were freezedried in vacuo at -70°C, and an appropriate amount of the resulting powder was given into Supremax glass tubes, together with an appropriate amount of copper oxide, evacuated, and sealed.
as §3

[4] = Saliva test after ingestion of labelled substance (isotope content by mass spectrometry, δ-values); type: in vivo, human
Method: as §1, §2, §3

SMILES | relative amount of ^13C in urine: drop to normal levels [1] | period over which measurements of ^13CO2 in expired breath are sensitive [2] | period over which the relative content of ^13C (DOB = delta over baseline) rises [2] | relative content of ^13C returns to baseline values [2] | remaining effect size ([3]; blood, after about 50 hours after ingestion, disturbed by large variations) | marked increase in ^13C-content (time after ingestion) ([3]; in vivo) | rapid decrease of ^13C-content until (time after ingestion) ([3]; in vivo) | effect size in saliva samples ([4]; saliva, single 1 g dose ingested, two subjects, relatively large variation) | δ-^15N-values of urine: time after which the figure slowly returns to baseline values [1] | period after which δ-values in saliva are similar to urine-values ([4]; in vivo)
O[13CH2][13C@H]1O[13CH](O)[13C@H](O)[13C@@H](O)[13C@@H]1O (stereo partly shown) [^13C6-glucose] | ≤ 5 days | 1 to 2 days | 1 to 3 h | 36 to 48 h | small | approximately 6 hours | about 50 hours | no significant effect size |  | 
CC(C)C[C@H]([15NH2])C(=O)O [^15N-L-leucine] |  |  |  |  |  |  |  |  | approximately 5 days | ca. 1 week
